Measurements from ChEMBL document CHEMBL4813997, “Discovery of 3-aryl substituted benzoxaboroles as broad-spectrum inhibitors of serine- and metallo-β-lactamases” (Bioorg Med Chem Lett, 2021).
Converted amounts (≈) assume the structure as drawn.

Key:
[1] = Inhibition of bacterial Beta-lactamase AmpC (20 - 377) (unknown origin) expressed in Escherichia coli Transetta (DE3); set-up: species or system Bacteria
[2] = Inhibition of bacterial Beta-lactamase SFH-1 (3 - 234) expressed in Escherichia coli Transetta (DE3); set-up: species or system Bacteria
[3] = Inhibition of bacterial Beta-lactamase OXA-48 (1 - 265) (unknown origin) expressed in Escherichia coli Transetta (DE3); set-up: species or system Bacteria
[4] = Inhibition of bacterial New Delhi metallo-beta-lactamase 1 (1- 270) (unknown origin) expressed in Escherichia coli Transetta (DE3); set-up: species or system Bacteria
[5] = Inhibition of bacterial Beta-lactamase KPC-2 (29 - 289) (unknown origin) expressed in Escherichia coli Transetta (DE3); set-up: species or system Bacteria
[6] = target: Beta-lactamase TEM (Bacteria, UniProt P62593); test: Inhibition of bacterial Beta-lactamase TEM-1 (24 - 286) (unknown origin) expressed in Escherichia coli Transetta (DE3)
[7] = Inhibition of bacterial Beta-lactamase VIM-1 (27 - 266) (unknown origin) expressed in Escherichia coli Transetta (DE3); set-up: species or system Bacteria
[8] = system: HEK-293T; test: Cytotoxicity against human HEK293T cells assessed as reduction in cell viability at 10 to 100 uM; type: cell-based; details: dose 10-100 µM
[9] = system: Escherichia coli; test: Potentiation of meropenem-induced antibacterial activity against KPC-2 producing Escherichia coli BAA2340 assessed as MIC of meropenem at 100 uM; type: functional
[10] = system: Escherichia coli; test: Potentiation of meropenem-induced antibacterial activity against KPC-2 producing Escherichia coli 11119 assessed as MIC of meropenem at 10 uM; type: functional
[11] = system: Escherichia coli; test: Potentiation of meropenem-induced antibacterial activity against KPC-2 producing Escherichia coli 11119 assessed as MIC of meropenem at 100 uM; type: functional
[12] = system: Escherichia coli; test: Potentiation of meropenem-induced antibacterial activity against KPC-2 producing Escherichia coli BAA2340 assessed as MIC of meropenem at 10 uM; type: functional
[13] = system: Klebsiella pneumoniae; test: Potentiation of meropenem-induced antibacterial activity against AmpC/TEM-1 producing Klebsiella pneumoniae C692 assessed as MIC of meropenem at 100 uM; type: functional
[14] = system: Klebsiella pneumoniae; test: Potentiation of meropenem-induced antibacterial activity against AmpC/TEM-1 producing Klebsiella pneumoniae C692 assessed as MIC of meropenem at 10 uM; type: functional
[15] = system: Escherichia coli; test: Antibacterial activity against Escherichia coli ATCC 25922; type: functional
[16] = system: Escherichia coli; test: Antibacterial activity against KPC-2 producing Escherichia coli 11119; type: functional
[17] = system: Klebsiella pneumoniae; test: Antibacterial activity against AmpC/TEM-1 producing Klebsiella pneumoniae C692; type: functional
[18] = system: Escherichia coli; test: Antibacterial activity against KPC-2 producing Escherichia coli BAA2340; type: functional
[19] = target: Beta-lactamase (Klebsiella pneumoniae, UniProt Q93LQ9); test: Inhibition of Klebsiella pneumoniae KPC-2
Beta-lactamase, sequence (Q93LQ9 whole entry): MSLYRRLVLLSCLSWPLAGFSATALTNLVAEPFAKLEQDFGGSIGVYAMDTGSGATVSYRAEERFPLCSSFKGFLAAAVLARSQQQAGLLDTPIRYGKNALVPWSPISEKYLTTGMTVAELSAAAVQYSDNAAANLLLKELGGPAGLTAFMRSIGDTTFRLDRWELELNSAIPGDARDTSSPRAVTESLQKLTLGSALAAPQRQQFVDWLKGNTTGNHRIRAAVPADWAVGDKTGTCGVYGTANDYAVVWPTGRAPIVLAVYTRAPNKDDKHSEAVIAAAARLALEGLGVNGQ

Beta-lactamase TEM, sequence (P62593 whole entry): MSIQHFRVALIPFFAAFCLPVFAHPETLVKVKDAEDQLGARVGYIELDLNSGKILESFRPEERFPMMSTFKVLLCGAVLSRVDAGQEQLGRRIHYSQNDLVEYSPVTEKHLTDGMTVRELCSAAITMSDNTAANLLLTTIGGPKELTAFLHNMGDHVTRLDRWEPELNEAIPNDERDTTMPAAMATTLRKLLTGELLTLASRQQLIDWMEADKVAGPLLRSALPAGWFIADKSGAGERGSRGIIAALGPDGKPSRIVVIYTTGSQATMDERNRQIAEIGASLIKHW

IC50 [19] | Compound | IC50 [1] | IC50 [2] | IC50 [3] | IC50 [4] | IC50 [5] | IC50 [6] | IC50 [7] | Activity [8] | MIC [9] | MIC [10] | MIC [11] | MIC [12] | MIC [13] | MIC [14] | MIC [15] | MIC [16] | MIC [17] | MIC [18]
 | CN(C)c1ccc(C2OB(O)c3cc4c(cc32)OCO4)cc1 (stereo unspecified) | 5.23 µM | 2.77 µM | 6.4 µM | 16.6 µM | 0.76 µM | 1.15 µM | 51 µM |  |  |  |  |  |  |  |  |  |  | 
 | CN(C)c1ccc(C2OB(O)c3ccc(Cl)cc32)cc1 (stereo unspecified) | 22.7 µM | 3.81 µM | 2.34 µM | 9.05 µM | 0.086 µM | 1.54 µM | > 100 µM | Non-Toxic | 0.5 µg/mL | 32 µg/mL | 8 µg/mL | 2 µg/mL | > 128 µg/mL | > 128 µg/mL |  |  |  | 
 | OB1OC(c2c[nH]c3ccccc23)c2ccccc21 (stereo unspecified) | 3.66 µM | 8.5 µM | > 100 µM | 6.04 µM | 2.58 µM | > 100 µM | 15.2 µM |  |  |  |  |  |  |  |  |  |  | 
 | CN(C)c1ccc(C2OB(O)c3ccc(F)cc32)cc1 (stereo unspecified) | 39.3 µM | 3.64 µM | 3.58 µM | 11.2 µM | 0.35 µM | 5.68 µM | > 100 µM |  |  |  |  |  |  |  |  |  |  | 
 | OB1OC(c2cn(Cc3ccccc3)c3ccccc23)c2ccccc21 (stereo unspecified) | > 100 µM | 9.6 µM | > 100 µM | 15.9 µM | > 100 µM | > 100 µM | 10.6 µM |  |  |  |  |  |  |  |  |  |  | 
 | CNc1ccc(C2OB(O)c3ccccc32)cc1 (stereo unspecified) | 13.9 µM | 3.02 µM | 2.37 µM | 57.4 µM | 0.1 µM | 3.2 µM | 26.4 µM |  |  |  |  |  |  |  |  |  |  | 
 | CN(C)c1ccc(C2OB(O)c3ccccc32)cc1 (stereo unspecified) | 8.27 µM | 2.52 µM | 2.41 µM | 8.44 µM | 0.18 µM | 0.73 µM | 39.4 µM |  |  |  |  |  |  |  |  |  |  | 
 | Cc1ccc2[nH]cc(C3OB(O)c4ccccc43)c2c1 (stereo unspecified) | 8.52 µM | 19.4 µM | > 100 µM | 68 µM | 0.22 µM | > 100 µM | 16.2 µM |  |  |  |  |  |  |  |  |  |  | 
 | OB1OC(c2cccs2)c2ccccc21 (stereo unspecified) | 18.7 µM | 2.47 µM | 5.45 µM | 22.4 µM | 0.41 µM | 6.97 µM | 17.4 µM | Non-Toxic | 0.5 µg/mL | 32 µg/mL | 2 µg/mL | 2 µg/mL | > 128 µg/mL | > 128 µg/mL |  |  |  | 
 | OB1OC(c2c[nH]c3ccc(Br)cc23)c2ccc(F)cc21 (stereo unspecified) | > 100 µM | > 100 µM | > 100 µM | > 100 µM | > 100 µM | > 100 µM | > 100 µM |  |  |  |  |  |  |  |  |  |  | 
 | OB1OC(c2ccccc2)c2ccccc21 (stereo unspecified) | 29.2 µM | 3.56 µM | 8.67 µM | 89 µM | 1 µM | 4.46 µM | 73.8 µM |  |  |  |  |  |  |  |  |  |  | 
 | NC(=O)[C@@H]1CC[C@@H]2CN1C(=O)N2OS(=O)(=O)O [AVIBACTAM] | 0.024 µM | 0.025 µM | 0.17 µM | > 100 µM | 0.0037 µM |  | > 100 µM |  |  |  |  |  |  |  |  |  |  | 
 | OB1OC(c2c[nH]c3ccc(Cl)cc23)c2ccccc21 (stereo unspecified) | 5.66 µM | 18.6 µM | > 100 µM | > 100 µM | 0.2 µM | > 100 µM |  |  |  |  |  |  |  |  |  |  |  | 
 | CN(C)c1ccc(C2OB(O)c3cccc(F)c32)cc1 (stereo unspecified) | 15.1 µM | 1.83 µM | 7.48 µM | 25.6 µM | 1.91 µM | 20.7 µM | > 100 µM |  |  |  |  |  |  |  |  |  |  | 
 | CNc1ccc(C2OB(O)c3cccc(F)c32)cc1 (stereo unspecified) | 15.3 µM | 1.15 µM | 6.49 µM | 51.4 µM | 2.41 µM | 37.9 µM | > 100 µM |  |  |  |  |  |  |  |  |  |  | 
 | C[C@@H](O)[C@H]1C(=O)N2C(C(=O)O)=C(S[C@@H]3CN[C@H](C(=O)N(C)C)C3)[C@H](C)[C@H]12 [MEROPENEM] |  |  |  |  |  |  |  |  |  |  |  |  |  |  | 0.06 µg/mL (≈ 0.156 µM) | 64 µg/mL (≈ 167 µM) | > 128 µg/mL | 16 µg/mL (≈ 41.7 µM)
 | OB1OC(c2ccc(N3CCCCC3)cc2)c2ccccc21 (stereo unspecified) | 32.2 µM | 5.27 µM | 3.44 µM | 11.7 µM | 0.51 µM | 33 µM | 18.4 µM |  |  |  |  |  |  |  |  |  |  | 
 | OB1OC(c2c[nH]c3ccc(OCc4ccccc4)cc23)c2ccccc21 (stereo unspecified) | > 100 µM | > 100 µM | > 100 µM | > 100 µM | > 100 µM | > 100 µM | > 100 µM |  |  |  |  |  |  |  |  |  |  | 
0.67 µM | N#Cc1ccc(Oc2ccc3c(c2)COB3O)cc1 [CRISABOROLE] |  |  |  |  |  |  |  |  |  |  |  |  |  |  |  |  |  | 
 | OB1OC(c2c[nH]c3ccc(F)cc23)c2ccccc21 (stereo unspecified) | 7.27 µM | 6.58 µM | > 100 µM | > 100 µM | 0.36 µM | 88.8 µM | 62.5 µM |  |  |  |  |  |  |  |  |  |  | 
 | CN(C)c1ccc(C2OB(O)c3cc(Cl)ccc32)cc1 (stereo unspecified) | 3.6 µM | 0.47 µM | 1.96 µM | 61.7 µM | 0.81 µM | 4.34 µM | > 100 µM |  |  |  |  |  |  |  |  |  |  | 
 | OB1OC(c2c[nH]c3ccccc23)c2c(F)cccc21 (stereo unspecified) | 10.8 µM | 2.17 µM | > 100 µM | 25.4 µM | 6.56 µM | > 100 µM | 89.7 µM |  |  |  |  |  |  |  |  |  |  | 
 | COc1ccc2c(c1)C(c1ccc(N(C)C)cc1)OB2O (stereo unspecified) | 11.4 µM | 4.23 µM | 2.93 µM | 38.4 µM | 0.18 µM | 1.54 µM | > 100 µM |  |  |  |  |  |  |  |  |  |  | 
 | OB1OC(c2c[nH]c3ccc(Br)cc23)c2ccccc21 (stereo unspecified) | 25.9 µM | 14.9 µM | > 100 µM | 24 µM | 9.43 µM | > 100 µM | 13.1 µM |  |  |  |  |  |  |  |  |  |  | 
